Laboratory results published in US20250325533A1, “TRYPTAMINE COMPOSITIONS FOR ENHANCING NEURITE OUTGROWTH” (TURTLE BEAR HOLDINGS, LLC, priority 2016, published 2025).
“Also recorded” adds a separate entry of the source.

Tests used:
[1] = system: inflammation in the lungs; settings: in vivo; cited from earlier work
[2] = system: hallucinogenic effects in humans; settings: human, cited from earlier work
[3] = system: PC12 cells (conditioned media from 1321N1 human astrocytoma cells); assay: Neurite outgrowth of PC12 cells treated with conditioned media from 1321N1 cells; type: cell-based, rat; settings: conditioned media from treated 1321N1 cells; n=3
Description: 1321N1 human brain astrocytoma cells are known to excrete neurologically beneficial compounds when stimulated with neurotrophic compounds and fungal extracts including lion's mane (Mori et al., Biological and Pharmaceutical Bulletin, 9: 1727-1732 (2008)). While some fungi have well established mechanisms by which they benefit neurological health, little is known about the role of psilocybin analogs specifically. Generally following the protocol of Mori et al., 2008, 1321N1 human astrocytoma cells were treated with psilocybin analogs, and conditioned media was collected and applied to differentiated rat pheochromocytoma PC12 cells to determine the resulting impact on neurite outgrowth.

[4] = system: Rat Induced Pluripotent Stem Cell (iPSC) neurons / cortical neurons from rat embryo; assay: Neurite outgrowth and length in cultured neurons, beta III tubulin immunostaining, High-Content Screening (Neurofit); type: cell-based; settings: day 10
Procedure: Experiments were conducted to evaluate the neurotrophic effects of several purified tryptamines, H. erinaceum extracts, and the tryptamines combined with selected extracts of H. erinaceum. The tryptamines, baeocystin, norbaeocystin, and norpsilocin, were evaluated at final concentrations of 0.3 μg/mL, 1 μg/mL, 3 μg/mL, and 10 μg/mL. The experiments analyzed the H. erinaceum growth medium (rice or rice and oat hull fiber), the days of cultivation, the extract solvent (water, ethanol, or ethyl acetate), and the final concentration of the extract (31.3 μg/mL, 62.5 μg/mL, 125 μg/mL or 250 μg/mL). Finally, combinations of the three tryptamines and representative H. erinaceum extracts were combined and evaluated.
Experiments were conducted by Neurofit Contract Research Organization in Illkirch-Graffenstaden, France.
The following protocol was performed for each independent culture. Six culture experiments were performed for each condition.
Results are expressed as mean (±Standard Deviation).

[5] = system: nerve growth factor (NGF) protein; assay: ELISA of NGF protein in 1321N1 cells; type: cell-based; settings: human 1321N1 cells; vs vehicle control; n=3; p<0.05
Description: Accordingly, preliminary research has started to reveal the mechanisms by which psilocybin analogs may confer neurotrophic benefits that facilitate neurite outgrowth.
(§1) See Ly et al., “Psychedelics Promote Structural and Functional Neural Plasticity,” Cell Rep.

[6] = system: anti-inflammatory cytokine IL-10; assay: ELISA of IL-10 in 1321N1 cells; type: cell-based; settings: human 1321N1 brain cells
Description: as §1

Compound	inflammation in the lungs [1]	hallucinogenic effect ([2]; 4 mg consumed, anecdotal (Gartz 1991))	hallucinogenic effects ([2]; oral consumption of 10 mg and 20 mg)	neurite outgrowth induced by conditioned media [3]	Neurite length per neuron, % of control, Avg. ([4]; tryptamine 0.3 μg/mL) [%]	Neurites per neuron, % of control, Avg. ([4]; tryptamine 0.3 μg/mL) [%]	Neurite length per neuron, % of control, Avg. ([4]; tryptamine 1 μg/mL) [%]	Neurites per neuron, % of control, Avg. ([4]; tryptamine 1 μg/mL) [%]	Neurite length per neuron, % of control, Avg. ([4]; tryptamine 3 μg/mL) [%]	Neurites per neuron, % of control, Avg. ([4]; tryptamine 3 μg/mL) [%]	Neurite length per neuron, % of control, Avg. ([4]; tryptamine 10 μg/mL) [%]	Neurites per neuron, % of control, Avg. ([4]; tryptamine 10 μg/mL) [%]	expression of NGF protein [5]	expression of IL-10 [6]	neurite outgrowth compared with vehicle control and other treatments (in words) ([4]; at the concentrations tested)
COc1cc(C[C@@H](C)N)c(OC)cc1I [(R)-2,5-dimethoxy-4-iodoamphetamine]	prevent and reverse inflammation	–	–	–	–	–	–	–	–	–	–	–	–	–	–
CNCCc1c[nH]c2cccc(OP(=O)(O)O)c12 [baeocystin, 4-phosphoryloxy-N-methyltryptamine]	–	gentle hallucinogenic experience	did not produce any hallucinogenic effects	induce neurite outgrowth	119.24	94.46	112.34	93.66	118.42	97.18	109.61	96.87	–	–	–
NCCc1c[nH]c2cccc(OP(=O)(O)O)c12 [norbaeocystin, 4-phosphoryloxy-tryptamine]	–	–	–	induce neurite outgrowth	–	–	–	–	–	–	–	–	increased expression of NGF protein; also recorded: induces the expression; also recorded: induction of NGF protein	–	–
CNCCc1c[nH]c2cccc(O)c12 [norpsilocin, 4-hydroxy-N-methyl-tryptamine]	–	–	–	induce neurite outgrowth	107.70	83.77	101.13	87.18	73.80	79.36	7.65	27.71	–	induces the expression	did not perform better than vehicle control
